In patent US11583529B2, “Treatment of inflammatory disorders” (Aldeyra Therapeutics, Inc., priority 2017, dated 2023):
“Also recorded” adds a separate entry of the source.

Assays:
[1] = test system: rat model of endotoxin induced uveitis; assay: Rat model of endotoxin-induced uveitis (EIU), topical or intravitreal treatment; type: in vivo, female Lewis rats; conditions: for overall ophthalmic examination score: vs control (BSS) topical
Protocol: An in vivo study was conducted to assess the efficacy of intravitreal administration of compound I-22 in a rat model of endotoxin induced uveitis, one of the most appropriate models for the study of NIU (Smith et al., 1998) (Toxikon Study 16-04078-N1). Ocular inflammation was induced in female Lewis rats (n=10/group) by a single foot pad injection of LPS (100 μL) (Herbort et al., 1988, Graefe's Arch Clin Exp Ophthalmol. 226:553-558). Compound I-22 (5 mg/mL) was administered intravitreally into each eye (25 μg/eye), or topically to both eyes at 1, 3, 7, 10, and 17 hours post-LPS injection, within one hour of LPS administration. Balanced salt solution (BSS) served as a vehicle control. Retinal exams were performed prior to study start and six and 24 hours following LPS administration and scored using a Combined Draize and McDonald Shadduck scoring system, based on assessments of: retinal vasculopathy and retinal hemorrhage, exudate, and detachment.
Endotoxin-induced uveitis was created by a single injection of lipopolysaccharide (LPS; 100 μL) into one hind footpad. Ten (10) female Lewis rats per group received control (balanced salt solution, BSS) or test article (compound I-22) topically to both eyes at 1, 3, 7, 10, and 17 hours post-LPS injection. At each dosing time point, two drops (5 μL each, separated by approximately two minutes, for a total of 10 μL/eye/dose) were instilled into each eye of the animals. Ten female Lewis rats per group received control (BSS) or compound I-22 by a single intravitreal injection (IVT) in each eye at one hour post-LPS injection. Each eye received 5 μL of vehicle or test article.
Animals were anesthetized with isoflurane 1-3.5% for ophthalmic examinations. Both eyes of each animal were evaluated pre-dose using slit-lamp biomicroscopy, and an indirect ophthalmoscope or a surgical microscope, according to the Combined Draize and McDonald-Shadduck Scoring System, and the Ocular Posterior Segment Scoring Scale. All pupils were dilated with 1% tropicamide ophthalmic solution before ocular examination. Only rats showing no signs of eye irritation, ocular defects or preexisting corneal injury were used in the study.
Ophthalmic examinations were performed on both eyes of each animal approximately six and 24 hours following LPS administration, using slit-lamp biomicroscopy and a surgical microscope or via indirect ophthalmoscopy. Pupils were dilated with 1% Tropicamide Ophthalmic Solution before ophthalmic examinations.
Quantitative, continuous data from this study were analyzed using one-way ANOVA. Alternative or additional statistical methods were used as necessary.
In the same study, the efficacy of compound 1-5 was compared to that of compound 1-22. Compound 1-5 was topically administered topically to the eye at hours 1, 3, 7, 10, and 17, after LPS induction, or by a single intravitreal (IVT) injection one hour after LPS induction (n=10 per group), as was compound I-22. Ocular exams were performed 6 and 24 hours after LPS injection. Anterior segments were scored using a combined Draize and McDonald-Shadduck scoring system, and posterior segments were scored using 0 to 1 (vitreous, optic disc, retinal vasculature) and 0 to 4 (retinal and choroidal hemorrhage, exudation, and detachment) scales. Statistical significance from vehicle control was determined by ANOVA, followed by Tukey's post hoc test.

[2] = test system: dextran sulfate sodium (DSS)-induced acute ulcerative colitis (UC); assay: 7-Day DSS-induced acute ulcerative colitis model; type: in vivo, female Swiss Webster mice; conditions: vs PO vehicle
[3] = intravitreal administration, vs vehicles
[4] = 200 mg/kg PO BID, Days 0 through 6
[5] = 200 mg/kg PO BID, Days −3 through 6

CC(C)(O)c1cc2oc(-c3ccccc3)nc2cc1N [Compound I-22]
ocular exam scores ([1]; IVT, vs vehicle): significantly improved
sums of the mean retinal examination scores ([1]; IVT, vs vehicle controls (FIG. 2)): significantly reduced
Total ocular inflammation [1, 3]: lower
anterior chamber inflammation [1, 3]: lower
retina-choroid inflammation [1, 3]: lower
signs of inflammation in the rat EIU model ([1]; overall): reduced
response in the EIU model ([1]; overall, I-22 compared with I-5): slightly more positive response
ophthalmic examination scores ([1]; single IVT injection (25 μg/eye), approximately six and 24 hours post LPS, vs control IVT): significantly lower
ocular exam scores ([1]; topical (TO), 6 hours and 24 hours, vs vehicle): significantly improved
Total ocular inflammation score ([1]; topical (TO), vs vehicle): lower
anterior chamber inflammation score ([1]; topical (TO), vs vehicle): lower
retina-choroid inflammation score ([1]; topical (TO), vs vehicle): lower
overall ophthalmic examination score ([1]; topical at 1, 3, 7, 10, 17 h post-LPS, approximately six hours post LPS): significantly lower; also recorded: statistically lower
overall ophthalmic examination score ([1]; topical, approximately 24 hours post LPS): significantly lower
Body weights ([2]; 200 mg/kg PO BID (Groups 5, 6, 7, 8, 9, and 10)): did not differ significantly
Colon lengths, increase in the direction of normal [2, 4]: 41%
PMN percentages in the proximal colon [2, 4]: significantly increased
distal colon edema, reduction [2, 4]: 78%
distal colon hyperplasia, reduction [2, 4]: 86%
distal colon mucosal thickness, reduction [2, 4]: 66%
full colon edema, reduction [2, 4]: 62%
proximal colon edema, reduction [2, 4]: 43%
full colon edema, reduction [2, 5]: 48%
proximal colon edema, reduction [2, 5]: 60%
proximal colon mucosal thickness, reduction [2, 5]: 58%
DAI stool consistency scores ([2]; Day 2, 200 mg/kg PO BID, Days 0 through 6): significantly reduced
